Patent US12344623B2, “Thiazolopyridine derivatives as adenosine receptor antagonists” (Merck Patent GmbH, priority 2019, dated 2025)
pIC50: −log10 of the molar value.

Columns and labels:
Type in all cases: cell-based
human A3 receptor = biological target: T1, human A3 receptor (Homo sapiens, UniProt P0DMS8); test: Functional A3 receptor activity, recombinant CHO cells, cAMP (HTRF), forskolin, agonist IB-MECA; details: recombinant CHO cells, forskolin, agonist IB-MECA; read-out: Functional A3 receptor activity, CHO, cAMP, IC50
T1 construct: expressed in transfected cells; host or cells: CHO
T1 sequence (P0DMS8 1-318): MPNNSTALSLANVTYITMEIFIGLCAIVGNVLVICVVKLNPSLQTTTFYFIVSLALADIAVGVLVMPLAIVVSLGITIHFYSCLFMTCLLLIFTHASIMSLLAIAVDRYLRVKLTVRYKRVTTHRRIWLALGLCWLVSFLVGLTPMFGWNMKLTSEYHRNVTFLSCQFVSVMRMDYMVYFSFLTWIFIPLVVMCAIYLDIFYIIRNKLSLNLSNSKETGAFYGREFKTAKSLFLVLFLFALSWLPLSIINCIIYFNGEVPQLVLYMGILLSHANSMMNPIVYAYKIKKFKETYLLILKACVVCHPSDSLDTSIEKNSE
Method in brief: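 CHO cells (hA1 or hA3) + forskolin + test cpd + agonist (CPA/A1, IB-MECA/A3), 30 min; HTRF cAMP readout; normalized vs inhibitor and DMSO controls, curve fit.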

mouse Pan T cells [1] = test: mTcell assay, cAMP, agonist NECA; details: mouse Pan T cells, agonist NECA 1 uM
Method in brief: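 Mouse splenic Pan T cells, pre-activated 48 hours with anti-CD3/CD28 beads, then plated at 50,000 cells/well in serum-free medium with 0.1% BSA. Compounds tested in 10-point dose response from 10 uM; after 30 minutes at 37° C, cAMP measured by HTRF.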

mouse Pan T cells [2] = test: mTcell assay, IL-2, rescue of cytokine secretion, agonist NECA; details: mouse Pan T cells, CD3/CD28 activated, NECA 1 μM, IL-2 rescue, 24 h
Text: Adenosine (Ado) in tumor microenvironment can inhibit T cell activity by signaling through A2A receptors and suppress cytokine secretion by T cells. […] Potential A2A antagonists or A2A/A2B dual antagonists can rescue T cells from this inhibition. Herein, we describe the in vitro system we established using Pan T cells from mouse spleens to screen potential A2A antagonists or A2A/A2B dual antagonists for their activity. The method described involves the use of CD3/CD28 pre-coated beads to stimulate Pan T cells purified from mouse splenocytes, combined with the addition of A2A agonist along with potential A2A or A2A/A2B dual antagonists to evaluate potentiation of T cell cytokine production.
Briefly, mouse Pan T cells are purified from spleens of BALB/c mice using Pan T cell isolation kit Mouse II (MACS Miltenyi biotech Cat # Order no. 130-095-130) according to manufacturer's protocol. The purified T cells are seeded in Nunc™ 96-Well Polystyrene Round Bottom Microwell Plates in RPMI medium with 10% heat inactivated fetal bovine serum. The cells are rested at 37° C. for 1 h before activating with CD3/CD28 pre-coated beads (Dynabeads™ Mouse T-Activator CD3/CD28; Cat #11456D). After 30 min the cells are treated with varying doses of test antagonist(s). […] After 24 h incubation IL-2 levels in the supernatants are measured by ELISAs according to manufacturer's protocol (R&D systems Cat #DY402 (IL-2)). Once the concentrations are calculated, the difference of cytokine concentration of DMSO control and agonist alone control is calculated and the percentage of rescue by each concentration of antagonist is calculated by using Microsoft Excel. These percentages of cytokine rescue in a dose dependent manner of antagonist is plotted in GraphPad Prism software and IC50 is calculated.

human A2A receptor [3] = biological target: T2, human A2A receptor (Homo sapiens, UniProt P29274); test: Human T cells, endogenous A2A receptor, cAMP, agonist NECA; details: read-out: hTcell data, cAMP, IC50
Method in brief: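 Pan T cells isolated from fresh human blood PBMC, endogenously expressing Gs-coupled A2A, treated with compounds. Cellular cAMP measured by HTRF after 1 h; data normalized to inhibitor control and DMSO neutral control, then curve-fitted.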

human T cells = test: hTcell data, IL-2 (human T cells, IL-2 readout; method not given); details: compounds of the present invention
human A2A receptor [4] = biological target: T2, human A2A receptor; test: Functional A2A receptor activity, recombinant HEK293 cells, cAMP (HTRF), agonist NECA; parameters: expressed in transfected cells; host or cells: HEK293; details: read-out: Functional A2A receptor activity, HEK293, cAMP, IC50
Method in brief: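 cAMP readout by HTRF after 30 min exposure of cells to forskolin, compound and agonist; data normalized vs inhibitor ctrl and DMSO (neutral) ctrl, then fitted.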

T2 sequence (P29274 whole entry): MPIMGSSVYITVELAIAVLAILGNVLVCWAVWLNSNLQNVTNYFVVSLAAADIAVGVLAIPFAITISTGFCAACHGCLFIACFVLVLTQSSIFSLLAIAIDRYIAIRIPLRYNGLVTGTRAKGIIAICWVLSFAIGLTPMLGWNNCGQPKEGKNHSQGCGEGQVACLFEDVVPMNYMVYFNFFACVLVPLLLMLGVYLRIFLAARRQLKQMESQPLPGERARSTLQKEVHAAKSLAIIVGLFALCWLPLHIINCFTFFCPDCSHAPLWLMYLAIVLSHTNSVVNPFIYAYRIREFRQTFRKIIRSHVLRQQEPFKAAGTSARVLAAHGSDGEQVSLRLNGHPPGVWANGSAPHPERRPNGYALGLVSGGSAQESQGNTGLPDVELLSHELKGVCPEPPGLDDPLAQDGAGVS

COc1ncc(C2=CCOCC2)c2sc(NC(=O)N3CC[C@@]4(CCCOC4)C3)nc12 [Compound 25, (S)-7-Oxa-2-aza-spiro[4.5]decane-2-carboxylic acid [7-(3,6-dihydro-2H-pyran-4-yl)-4-methoxy-thiazolo[4,5-c]pyridin-2-yl]-amide]
pIC50 (human A3 receptor): < 6.00 | pIC50 (mouse Pan T cells [1]): > 8.00 | pIC50 (mouse Pan T cells [2]): > 8.00 | pIC50 (human A2A receptor [3]): > 8.00 | pIC50 (human T cells): > 8.00 | pIC50 (human A2A receptor [4]): > 8.00
